The text below walks through data of patent US20210115040A1, “OGA INHIBITOR COMPOUNDS” (Janssen Pharmaceutica NV, priority 2018, published 2021).

The target in experiment [1] is T1, recombinant human Meningioma Expressed Antigen 5 (MGEA5), also referred to as O-GlcNAcase (OGA) (Homo sapiens, UniProt O60502).
T1 construct: Full length OGA enzyme was purchased at OriGene (cat #TP322411); purchased OriGene TP322411
T1 sequence (O60502 1-916): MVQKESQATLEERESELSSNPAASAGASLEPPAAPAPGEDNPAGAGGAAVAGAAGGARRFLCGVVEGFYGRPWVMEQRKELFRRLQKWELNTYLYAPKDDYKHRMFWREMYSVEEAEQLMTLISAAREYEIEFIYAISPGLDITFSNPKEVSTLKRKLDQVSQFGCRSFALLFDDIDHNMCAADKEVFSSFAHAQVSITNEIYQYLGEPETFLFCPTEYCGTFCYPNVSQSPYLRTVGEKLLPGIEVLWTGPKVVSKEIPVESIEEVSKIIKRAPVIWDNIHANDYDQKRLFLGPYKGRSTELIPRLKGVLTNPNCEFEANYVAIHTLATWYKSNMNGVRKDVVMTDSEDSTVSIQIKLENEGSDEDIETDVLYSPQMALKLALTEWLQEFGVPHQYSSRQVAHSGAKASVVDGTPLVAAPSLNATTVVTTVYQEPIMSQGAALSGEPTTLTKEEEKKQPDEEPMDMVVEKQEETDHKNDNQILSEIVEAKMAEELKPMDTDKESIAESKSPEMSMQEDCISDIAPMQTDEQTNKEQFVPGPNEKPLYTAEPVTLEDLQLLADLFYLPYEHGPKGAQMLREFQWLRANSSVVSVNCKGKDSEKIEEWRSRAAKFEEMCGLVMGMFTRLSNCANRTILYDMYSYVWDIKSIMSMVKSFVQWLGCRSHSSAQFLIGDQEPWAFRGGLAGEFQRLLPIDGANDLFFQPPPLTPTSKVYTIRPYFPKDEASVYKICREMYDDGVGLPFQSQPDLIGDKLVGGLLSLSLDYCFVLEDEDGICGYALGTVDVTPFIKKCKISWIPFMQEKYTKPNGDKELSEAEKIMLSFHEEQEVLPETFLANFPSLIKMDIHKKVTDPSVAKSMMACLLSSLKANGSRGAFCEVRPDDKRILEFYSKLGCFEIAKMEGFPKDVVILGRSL
The experiment in a line: OGA biochemical assay (inhibition of FM-GlcNAc hydrolysis, fluorescence). The note with it: FM-GlcNAc substrate; for IC50: 6 h at room temperature, read-out: Enzymatic hOGA, pIC50 (converted); for Enzymatic Emax (%) / Emax: maximal effect; for Emax: read-out: Enzymatic Emax (%). The text has this: The assay is based on the inhibition of the hydrolysis of fluorescein mono-β-D-N-Acetyl-Glucosamine (FM-GlcNAc) (Mariappa et al. 2015, Biochem J 470:255) by the recombinant human Meningioma Expressed Antigen 5 (MGEA5), also referred to as O-GlcNAcase (OGA). The hydrolysis FM-GlcNAc (Marker Gene technologies, cat #M1485) results in the formation of β-D-N-glucosamineacetate and fluorescein. The fluorescence of the latter can be measured at excitation wavelength 485 nm and emission wavelength 538 nm. An increase in enzyme activity results in an increase in fluorescence signal. Full length OGA enzyme was purchased at OriGene (cat #TP322411). The enzyme was stored in 25 mM Tris.HCl, pH 7.3, 100 mM glycine, 10% glycerol at −20° C. Thiamet G and GlcNAcStatin were tested as reference compounds (Yuzwa et al. 2008 Nature Chemical Biology 4:483; Yuzwa et al. 2012 Nature Chemical Biology 8:393). The assay was performed in 200 mM Citrate/phosphate buffer supplemented with 0.005% Tween-20. 35.6 g Na2HPO4 2H2O (Sigma, #C0759) were dissolved in 1 L water to obtain a 200 mM solution. 19.2 g citric acid (Merck, #1.06580) was dissolved in 1 L water to obtain a 100 mM solution. pH of the sodiumphosphate solution was adjusted with the citric acid solution to 7.2. The buffer to stop the reaction consists of a 500 mM Carbonate buffer, pH 11.0. 734 mg FM-GlcNAc were dissolved in 5.48 mL DMSO to obtain a 250 mM solution and was stored at −20° C. OGA was used at a 2 nM concentration and FM-GlcNAc at a 100 uM final concentration. Dilutions were prepared in assay buffer.
50 nl of a compound dissolved in DMSO was dispensed on Black Proxiplate™ 384 Plus Assay plates (Perkin Elmer, #6008269) and 3 μl fl-OGA enzyme mix added subsequently. Plates were pre-incubated for 60 min at room temperature and then 2 μl FM-GlcNAc substrate mix added. […] Plates were briefly centrifuged for 1 min at 1000 rpm and incubate at room temperature for 6 h. To stop the reaction 5 μl STOP buffer were added and plates centrifuge again 1 min at 1000 rpm. Fluorescence was quantified in the Thermo Scientific Fluoroskan Ascent or the PerkinElmer EnVision with excitation wavelength 485 nm and emission wavelength 538 nm.
For analysis a best-fit curve is fitted by a minimum sum of squares method. From this an IC50 value and Hill coefficient was obtained. High control (no inhibitor) and low control (saturating concentrations of standard inhibitor) were used to define the minimum and maximum values.

The next experiment has as its target T2, OGA (Homo sapiens, UniProt O60502).
T2 construct: HEK293 cells inducible for P301L mutant human Tau (isoform 2N4R) were established at Janssen; endogenous in cells; host or cells: HEK293 cells inducible for P301L mutant human Tau (2N4R)
T2 sequence (O60502 1-916): T1 sequence (O60502 1-916)
Kind of experiment: OGA cellular assay (ICC detection of O-GlcNAcylated proteins in HEK293 cells inducible for P301L mutant human Tau). Format: cell-based. The conditions noted are these: for EC50: read-out: Cellular hOGA, pEC50 (converted); for Cellular Emax (%) / Emax: maximum = Thiamet G 200 uM; for Emax: HEK293, HEK293 cells inducible for P301L mutant human Tau. The protocol:
HEK293 cells inducible for P301L mutant human Tau (isoform 2N4R) were established at Janssen. Thiamet-G was used for both plate validation (high control) and as reference compound (reference EC50 assay validation). OGA inhibition is evaluated through the immunocytochemical (ICC) detection of O-GlcNAcylated proteins by the use of a monoclonal antibody (CTD110.6; Cell Signaling, #9875) detecting 0-GlcNAcylated residues as previously described (Dorfmueller et al. 2010 Chemistry & biology, 17:1250). Inhibition of OGA will result in an increase of O-GlcNAcylated protein levels resulting in an increased signal in the experiment. Cell nuclei are stained with Hoechst to give a cell culture quality control and a rough estimate of immediate compounds toxicity, if any. ICC pictures are imaged with a Perkin Elmer Opera Phenix plate microscope and quantified with the provided software Perkin Elmer Harmony 4.1.
Cells were propagated in DMEM high Glucose (Sigma, #D5796) following standard procedures. 2 days before the cell assay cells are split, counted and seeded in Poly-D-Lysine (PDL) coated 96-wells (Greiner, #655946) plate at a cell density of 12,000 cells per cm^2 (4,000 cells per well) in 100 μl of Assay Medium (Low Glucose medium is used to reduce basal levels of GlcNAcylation) (Park et al. 2014 The Journal of biological chemistry 289:13519). At the day of compound test medium from assay plates was removed and replenished with 90 μl of fresh Assay Medium. 10 μl of compounds at a 10fold final concentration were added to the wells. Plates were centrifuged shortly before incubation in the cell incubator for 6 hours. DMSO concentration was set to 0.2%. Medium is discarded by applying vacuum. For staining of cells medium was removed and cells washed once with 100 μl D-PBS (Sigma, #D8537). From next step onwards unless other stated assay volume was always 50 μl and incubation was performed without agitation and at room temperature. Cells were fixed in 50 μl of a 4% paraformaldehyde (PFA, Alpha aesar, #043368) PBS solution for 15 minutes at room temperature. […] Before analysis samples were washed 2 times manually for 5 minutes in ICC base buffer.
Imaging is performed using Perkin Elmer Phenix Opera using a water 20× objective and recording 9 fields per well. Intensity readout at 488 nm is used as a measure of O-GlcNAcylation level of total proteins in wells. To assess potential toxicity of compounds nuclei were counted using the Hoechst staining. IC50-values are calculated using parametric non-linear regression model fitting. As a maximum inhibition Thiamet G at a 200 uM concentration is present on each plate. In addition, a concentration response of Thiamet G is calculated on each plate.

Setting [2] is: HEK293 cells inducible for P301L mutant human Tau, 6 hours incubation.
Where [3] appears, read: HEK293 cells inducible for P301L mutant human Tau.

SMILES strings stand for the structures.

Regarding `Cc1cc(O[C@@H]2CCN(C(C)c3ccc4sc(C)nc4n3)C2)cc(C)n1` (single isomer, unassigned) [Compound 73], in experiment [1], the IC50 is greater than 10 µM and the “Enzymatic Emax (%)” value is reported as 8%. The EC50 on OGA (setting [2]) is greater than 1 µM. Also, the “Cellular Emax (%)” value at OGA (setting [3]) is reported as −9%.

Consider `Cc1cc(C)nc(CO[C@@H]2CCN(C(C)c3ccc4sc(C)nc4n3)C2)c1` (stereo partly shown) [Compound 80], for which the IC50 in experiment [1] was 2 µM. The Emax in experiment [1] was 85%; on OGA, 5%. The EC50 at OGA (setting [2]) was greater than 1 µM.

As for `Cc1cc(OC[C@H]2CCCN(C(C)c3ccc4sc(C)nc4n3)C2)nc(C)n1` (mixture of isomers) [Compound 49ab], in experiment [1], the IC50 was 0.0126 µM and the Emax stood at 100%. Also, on OGA, the Emax is 68%. For the same compound, the EC50 at OGA (setting [2]) was 0.1 µM.

Take `Cc1cc([C@H]2CCCN([C@@H](C)c3ccc4sc(C)nc4n3)C2)nc(C)n1` (racemic) [Compound 71]: in experiment [1], the IC50 is 7.94 µM and the Emax was determined as 51%. Also, on OGA, the Emax is -5%. Also, the EC50 on OGA (setting [2]) is greater than 1 µM.

For `Cc1cc(C[C@H]2CCCN(C(C)c3ccc4oc(C)nc4n3)C2)cc(C(F)(F)F)n1` (mixture of isomers) [Compound 24ab], in experiment [1], the IC50 is 0.0126 µM and the Emax is 103%. Besides, at OGA, the Emax came to 91%. For the same compound, the EC50 at OGA (setting [2]) was 0.0501 µM.

For `Cc1cc(C[C@@H]2CCN([C@@H](C)c3cc4nc(C)sc4cc3F)C2)cc(C)n1` [Compound 60], in experiment [1], the IC50 is 0.002 µM and the Emax is 99%. On OGA, the Emax stood at 66%. The EC50 on OGA (setting [2]) is 0.0631 µM.

On to `Cc1cc(C[C@H]2CCCN(Cc3ccc4[nH]c(C)nc4n3)C2)cc(C)n1` [Compound 9], for which, in experiment [1], the IC50 was 0.2 µM and the Emax is 96%. For the same compound, on OGA, the Emax stood at 59%. Further, the EC50 at OGA (setting [2]) was 0.631 µM.

Take `Cc1cc(C2CCCN(C(C)c3ccc4oc(C)nc4n3)C2)cc(C(F)(F)F)n1` (racemic) [Compound 19]: in experiment [1], the IC50 was 0.02 µM and the Emax is 99%. Further, the Emax on OGA was 68%. In addition, the EC50 on OGA (setting [2]) is 0.501 µM.

Turning to `Cc1cc(O[C@@H]2CCN(C(C)c3ccc4sc(C)nc4n3)C2)cc(C)n1` (single isomer, unassigned) [Compound 74], in experiment [1], the IC50 is 0.158 µM and the “Enzymatic Emax (%)” value was 97%. Further, on OGA (setting [2]), the “Cellular hOGA; pEC50” value is recorded as less than 6. The “Cellular Emax (%)” value on OGA (setting [3]) was −4%.

For the compound `Cc1cc(OC2CCCN(C(C)c3ccc4sc(C)nc4n3)C2)cc(C)n1` (stereo not shown) [Compound 40], in experiment [1], the IC50 was 0.0126 µM and the Emax stood at 99%. For the same compound, the Emax on OGA turned out to be 49%. Also, the EC50 at OGA (setting [2]) is 0.794 µM.

As for `Cc1cc(NCC2CCCN(C(C)c3ccc4sc(C)nc4n3)C2)cc(C)n1` (single isomer, unassigned) [Compound 106], in experiment [1], the IC50 was 0.00501 µM. The Emax stood at 99% in experiment [1] and 92% on OGA. Besides, the EC50 at OGA (setting [2]) was 0.00631 µM.

Consider `Cc1cc(C[C@@H]2CCN(C(C)c3nc4nc(C)sc4cc3F)C2)cc(C)n1` (single isomer, unassigned) [Compound 94], for which, in experiment [1], the IC50 was 1.58 µM and the “Enzymatic Emax (%)” value is given as 76%. Also, the EC50 on OGA (setting [2]) is greater than 1 µM. The “Cellular Emax (%)” value on OGA (setting [3]) came out at 2%.

Turning to `Cc1cc([C@H]2CCCN([C@@H](C)c3ccc4sc(C)nc4n3)C2)cc(C)n1` (racemic) [Compound 76], in experiment [1], the IC50 is 0.00501 µM and the Emax came out at 98%. Besides, on OGA, the Emax came to 67%. Also, at OGA (setting [2]), the EC50 was 0.0316 µM.

Consider `Cc1cc(NC[C@H]2CCCN(C(C)c3ccc4sc(C)nc4n3)C2)nc(C)n1` (stereo partly shown) [Compound 108], for which, in experiment [1], the IC50 is 0.00794 µM and the Emax was found to be 101%. The Emax on OGA turned out to be 84%. At OGA (setting [2]), the EC50 was 0.0126 µM.

In the case of `Cc1cc(OC[C@H]2CCCN([C@@H](C)c3ccc4sc(C)nc4n3)C2)cc(C)n1` [Compound 46a], in experiment [1], the IC50 is 0.631 µM and the Emax is 96%.

`Cc1cc(C[C@@H]2CCN(C(C)c3cnc4[nH]c(C)nc4c3)C2)cc(C)n1` (mixture of isomers) [Compound 7]: in experiment [1], the IC50 is 0.0501 µM and the Emax stood at 100%.

With `Cc1cc(C[C@H]2CCCN([C@@H](C)c3ccc4cn(C)nc4n3)C2)cc(C)n1` (relative stereo) [Compound 12a], in experiment [1], the IC50 was 1.58 µM and the Emax was 88%.

Turning to `Cc1cc(C[C@H]2CCN(C(C)c3ccc4nc(C)sc4c3)C2)cc(C)n1` (single isomer, unassigned) [Compound 57], in experiment [1], the IC50 was greater than 10 µM and the Emax came to 28%.

Usually Emax stands for the size of the effect at its maximum, as opposed to the concentration needed.
